{"source": "patent US20050244413A1", "about": "“Compositions and methods for treating cancer using cytotoxic CD44 antibody immunoconjugates and chemotherapeutic agents” (priority 2002, published 2005)", "key": {"[1]": {"experiment": "Tolerability of BIWI 1 monotherapy in nude mice (mouse weight)", "assay_type": "in vivo", "settings": "FaDu xenografted mice, 21 mg/kg/d BIWI 1", "protocol": "(§1) In vivo anti-tumor efficacy of BIWI 1 was tested in three nude mouse xenograft models applying antigen-positive human tumors: A431 (ATCC # CRL 1555; epidermoid carcinoma of the vulva), FaDu (ATCC # HTB 43; squamous cell carcinoma of the pharynx), and MDA-MB 453 (ATCC # HTB-131; breast carcinoma). The cells were received from ATCC and cultured in RPMI1640 medium containing 10% fetal calf serum and supplements. 1×10^6 tumors cells were transplanted subcutaneously into the right flank of 6 week old female NMRI-nu/nu mice. Tumor growth was monitored by measuring tumor size. A tumor response was rated as complete response when the tumor completely disappeared at any time after start of treatment. The response was rated as partial response when the tumor volume decreased after treatment but thereafter started regrowing. The tolerability of the treatment was monitored by measuring mouse weight during the observation period.\nThe tolerability of BIWI 1 monotherapy was determined by monitoring mouse weight during the whole duration of the experiment in the 2 models. The maximum observed average weight loss per group was 6% in FaDu xenografted mice treated with 21 mg/kg/d BIWI 1 (FIG. 5). The weight loss started around day 3 of treatment and lasted until day 10, thereafter animals regained weight and behaved similar as control animals. […]"}, "FaDu tumors": {"system": "FaDu tumors", "experiment": "BIWI 1 monotherapy in FaDu xenografted nude mice", "assay_type": "in vivo, mouse", "settings": "five consecutive days", "protocol": "as §1\nMice were randomised into the following treatment groups (treatment/initial mean tumor volume/tumor volume range/number of mice): • Group 1: Control (PBS)/142±82 mm^3/34-268 mm^3 /8 mice. • Group 2: BIWA 4 (21 mg/kg/d)/134±86 mm^3/42-268 mm^3/6 mice. • Group 3: BIWI 1 (2.1 mg/kg/d) 149±96 mm^3/50-268 mm^3/6 mice. • Group 4: BIWI 1 (7 mg/kg/d)/132±97 mm^3 42-268 mm^3/6 mice. • Group 5: BIWI 1 (21 mg/kg/d)/129±74 mm^3/50-231 mm^3/6 mice.\nGroups of 6 mice were treated with 2.1 mg/kg/d BIWI 1, 7 mg/kg/d BIWI 1, 21 mg/kg/d BIWI 1, and 21 mg/kg/d control antibody, respectively. Treatment consisted of i.v. injections of BIWI 1 given on five consecutive days, starting at day 1. […] The remaining 2 tumors grew similar to untreated control tumors."}, "[2]": {"system": "breast carcinoma xenografts", "experiment": "BIWI 1 (five daily doses) combination with paclitaxel in human breast carcinoma xenograft model", "assay_type": "in vivo, mouse", "protocol": "BIWI was given i.v. into the tail vein at doses of 50 μg DM1/kg/day or 100 μg DM1/kg/day for five consecutive days. Paclitaxel (Taxol®) was given i.v. at 20 or 10 mg/kg, doxorubicin (Adriamycin®) at 6 or 4 mg/kg only on the first day of the treatment period, in each case 4 hours after BIWI 1 treatment. In mice bearing breast carcinoma xenografts with a volume of approximately 100 mm3."}, "mouse CD44v6": {"system": "mouse CD44v6", "experiment": "Cross-reactivity with mouse CD44v6", "assay_type": "binding"}, "[3]": {"system": "antigen-positive FaDu cells", "experiment": "In vitro binding to FaDu cells (FACS)", "settings": "1 hour on ice, FITC-labeled anti-human IgG, read-out: apparent KD", "protocol": "The binding of BIWA 4 antibody and BIWI 1 conjugate to antigen-positive FaDu cells was determined. Cells ([…]) were incubated in 96-well plates with varying concentrations of antibody or conjugate on ice for 1 hour. The test article was washed from the plate and FITC-labeled anti-human IgG was added and the incubation on ice was continued in the dark for 1 hour. After washing, the cells were fixed with 1% paraformaldehyde and analyzed on a fluorescence activated cell sorter (FACS)."}, "MDA-MB-453 tumors [4]": {"system": "MDA-MB-453 tumors", "settings": "BIWI 1 75 μg/kg DM1 i.v. q7dx4", "procedure": "Experiments were performed using nude mice xenografted subcutaneously with the human breast carcinoma cell line MDA-MBA53. […] The efficacy of these combinations was compared to those of the respective monotherapies by i) analysing the tumor volumes over time and ii) by determining the time for tumors to reach a certain size (tumor growth delay).\nThe dilutions were prepared freshly for each application or stored at +4° C. during the whole treatment period. […] 200 μl of solutions with different concentrations were injected into the tail vein. Docetaxel (Taxotere®, Aventis, 10 mg/ml) was diluted in 0.9% NaCl. 200 μl of solutions with different concentrations were injected into the tail vein.\nBriefly, 1×10^7 MDA-MB-453 cells (ATCC No. HTB-131) were injected into the mammary fat pad of female NMRI nu/nu mice. After reaching a volume of approximately 1000 mm^3 tumors were excised, cut into 4×4 mm pieces and passaged further subcutaneously. Tumor fragments were cryoconserved in 90% RPMI 1640/10% dimethylsulfoxide (slow freezing process down to −80° C., storage in liquid nitrogen). For further passaging, frozen tumor fragments were thawed, washed 3 times in PBS and implanted subcutaneously into the right and left flanks of a 4-5 female NMRI nu/nu mice. Tumors of these mice were then used to prepare the animals for a therapy experiment. Tumors were excised with a size of approximately 10 mm in diameter, cut into 2×2 mm pieces and implanted subcutaneously into the right flank of 6-8 week old female NMRI nu/nu mice. Approximately twice as many animals as needed for the experiment were prepared. When tumors reached a size of 5-10 mm in diameter (10-14 days after implantation), animals were randomised and treatments were started. Animals were obtained from Harlan (Germany) or M&B (Denmark). Tumor sizes and body weights were recorded as described in Section 2.7."}, "A431 tumors": {"system": "A431 tumors", "experiment": "BIWI 1 monotherapy in A431 xenografted nude mice", "assay_type": "in vivo, mouse", "settings": "five consecutive days", "protocol": "as §1\nMice were randomised into the following treatment groups (treatment/initial mean tumor volume/tumor volume range/number of mice): • Group 1: Control (PBS)/185±217 mm^3/19-424 mm^3/5 mice. • Group 2: BIWA 4 (21 mg/kg/d)/133±115 mm^3/42-302 mm^3/5 mice. • Group 3: BIWI 1 (2.1 mg/kg/d)/107±63 mm^3/42-205 mm^3′/5 mice. • Group 4: BIWI 1 (7 mg/kg/d)/132±73 mm^3/42-205 mm^3/5 mice. • Group 5: BIWI 1 (21 mg/kg/d)/107±[…]/42-205 mm^3/5 mice.\nGroups of 5 mice were treated with 2.1 mg/kg/d BIWI 1, 7 mg/kg/d BIWI 1, 21 mg/kg/d BIWI 1, and 21 mg/kg/d control antibody, respectively. Treatment consisted of i.v. injections of BIWI 1 given on five consecutive days, starting at day 1."}, "MDA-MB-453 tumors [5]": {"system": "MDA-MB-453 tumors", "experiment": "BIWI 1 combination with doxorubicin in nude mice xenografted with MDA-MB-453 tumors", "assay_type": "in vivo, mouse", "procedure": "Similar experiments as outlined under Section 2.6 were undertaken in a human breast carcinoma xenograft model. Experiments were performed using nude mice xenografted subcutaneously with the human breast carcinoma cell line MDA-MBA53. […] The efficacy of these combinations was compared to those of the respective monotherapies by i) analysing the tumor volumes over time and ii) by determining the time for tumors to reach a certain size (tumor growth delay).\nThe dilutions were prepared freshly for each application or stored at +4° C. during the whole treatment period. […] Doxorubicin (Doxorubicin “Ebewe”®, 2 mg/ml) was diluted in PBS. 200 μl of solutions with different concentrations were injected into the tail vein. Docetaxel (Taxotere®, Aventis, 10 mg/ml) was diluted in 0.9% NaCl. 200 μl of solutions with different concentrations were injected into the tail vein.\nThe xenograft model was handled slightly different as outlined under Section 2.1. Briefly, 1×10^7 MDA-MB-453 cells (ATCC No. HTB-131) were injected into the mammary fat pad of female NMRI nu/nu mice. After reaching a volume of approximately 1000 mm^3 tumors were excised, cut into 4×4 mm pieces and passaged further subcutaneously. Tumor fragments were cryoconserved in 90% RPMI 1640/10% dimethylsulfoxide (slow freezing process down to −80° C., storage in liquid nitrogen). For further passaging, frozen tumor fragments were thawed, washed 3 times in PBS and implanted subcutaneously into the right and left flanks of a 4-5 female NMRI nu/nu mice. Tumors of these mice were then used to prepare the animals for a therapy experiment. Tumors were excised with a size of approximately 10 mm in diameter, cut into 2×2 mm pieces and implanted subcutaneously into the right flank of 6-8 week old female NMRI nu/nu mice. Approximately twice as many animals as needed for the experiment were prepared. When tumors reached a size of 5-10 mm in diameter (10-14 days after implantation), animals were randomised and treatments were started. Animals were obtained from Harlan (Germany) or M&B (Denmark). Tumor sizes and body weights were recorded as described in Section 2.7."}, "[6]": {"settings": "7 mg/kg/d or 21 mg/kg/d BIWI 1 i.v."}}, "note": "Values joined by “and” are separate entries in the source; they are usually repeats but may differ in a detail not shown here. Identical values can stand only once. Like-named read-outs stand apart in the source and are kept apart here.", "data": [{"substance": "BIWI 1", "values": [{"measurement": "maximum observed average weight loss per group", "setting": "[1]", "result": 6, "unit": "%"}, {"measurement": "tumor volume doubling time", "setting": "FaDu tumors; 2.1 mg/kg/d BIWI 1 i.v.", "result": "approximately 5 days"}, {"measurement": "complete responses", "setting": "FaDu tumors; 7 mg/kg/d BIWI 1 i.v.", "result": "1/6"}, {"measurement": "partial responses", "setting": "FaDu tumors; 7 mg/kg/d BIWI 1 i.v.", "result": "3/6"}, {"measurement": "day on which tumors disappeared", "setting": "FaDu tumors; 21 mg/kg/d BIWI 1 i.v.", "result": "~24", "unit": "days"}, {"measurement": "tumor regrowth until end of observation period (day 107)", "setting": "FaDu tumors; 21 mg/kg/d BIWI 1 i.v.", "result": "No tumor regrowth"}, {"measurement": "tumor response", "setting": "FaDu tumors; 21 mg/kg/d BIWI 1 i.v.", "result": "all tumors responded completely"}, {"measurement": "complete tumor regressions", "setting": "[2]; BIWI 1 monotherapy 50 μg DM1/kg/day i.v., five consecutive days", "result": "2/12"}, {"measurement": "T/C (median relative tumor volumes of treated versus control groups)", "setting": "[2]; BIWI 1 monotherapy 50 μg DM1/kg/day x5", "result": 19, "unit": "%"}, {"measurement": "Complete Regression", "setting": "[2]; BIWI 1 monotherapy 100 μg DM1/kg/day i.v., five consecutive days, tumors approx. 100 mm3", "result": "12/12"}, {"measurement": "cross-reaction with mouse CD44v6", "setting": "mouse CD44v6", "result": "does not cross-react"}, {"measurement": "Kd", "setting": "[3]", "result": 1.8, "unit": "nM"}, {"measurement": "GDF4", "setting": "MDA-MB-453 tumors [4]", "result": 1.3}, {"measurement": "T4T", "setting": "MDA-MB-453 tumors [4]", "result": "14 days and 14.1 days"}, {"measurement": "T/C (d 16)", "setting": "MDA-MB-453 tumors [4]", "result": 75, "unit": "%"}, {"measurement": "tumors with partial response", "setting": "A431 tumors; 2.1 mg/kg/d BIWI 1 i.v., 5 mice", "result": 2}, {"measurement": "complete responses", "setting": "A431 tumors; 2.1 mg/kg/d BIWI 1 i.v., no regrowth until day 134", "result": "3/5"}, {"measurement": "day on which tumors disappeared", "setting": "A431 tumors; [6]", "result": "~17", "unit": "days"}, {"measurement": "tumor regrowth until end of observation period (day 134)", "setting": "A431 tumors; [6]", "result": "No tumor regrowth"}, {"measurement": "tumor response", "setting": "A431 tumors; [6]", "result": "all tumors responded completely"}, {"measurement": "GDF4", "setting": "MDA-MB-453 tumors [5]; BIWI 1 50 μg/kg DM1 i.v. q7dx4", "result": 1.0}, {"measurement": "T/C (d13)", "setting": "MDA-MB-453 tumors [5]; BIWI 1 50 μg/kg DM1 i.v. q7dx4", "result": 68, "unit": "%"}, {"measurement": "GDF4", "setting": "MDA-MB-453 tumors [5]; BIWI 1 75 μg/kg DM1 i.v. q7dx4", "result": 1.6}, {"measurement": "T4T", "setting": "MDA-MB-453 tumors [5]; BIWI 1 75 μg/kg DM1 i.v. q7dx4", "result": "13 days and 13.0 days"}, {"measurement": "T/C (d13)", "setting": "MDA-MB-453 tumors [5]; BIWI 1 75 μg/kg DM1 i.v. q7dx4", "result": 59, "unit": "%"}, {"measurement": "tumor bearing animals cured", "setting": "MDA-MB-453 tumors [5]; BIWI 1 100 μg/kg DM1, q7dx4", "result": "4/6"}]}]}
